# Test results published in publication PMC10250618, “Synthesis, structure-activity relationships and biological evaluation of benzimidazole derived sulfonylurea analogues as a new class of antagonists of P2Y1 receptor” (Frontiers in Pharmacology, 2023).
# Tests used:
# h-P2Y4 = biological target: T1, h-P2Y4 (Homo sapiens, UniProt P51582); assay: Calcium mobilization assay, h-P2Y4 transfected 1321N1 astrocytoma cells; type: cell-based; conditions: final conc of 100 μM; 500 μM UTP
# T1 construct: host or cells: human 1321N1 astrocytoma cells, stably transfected
# Experimental: (§1) Dr. Gary A. Weisman provided human-1321N1 astrocytoma cells that had been transfected by the tP2Y1R, hP2Y2R, hP2Y4R, and rP2Y6R and untransfected 1321N1 astrocytoma cells (University of Missouri Mo., Bond Life Science Center). The DMEM Dulbecco’s Modified Eagle -Medium (Gibco) was added in flasks to cultivate the cell line. 10% of the Fetal bovine serum was also added to the media together with 500 μg/mL of Geneticin (G418) and 1% of the Pen/Strep. The cells in T-75 flask were then cultured and incubated in a CO2 incubator which was maintained at (5%) and 37°C temperature until 90% of the cells were confluent. Throughout the experiment, cells were periodically checked for the confluency and strictly watched for the microbial contamination.
# (§2) The FLUOstar Galaxy (BMG LABTECH GmbH, Ortenberg, Germany) microplate reader with two injectors was used to measure the Ca^2+ fluorescence of synthetic compounds. For this assay, 1321N1 transfected cells (t-P2Y1, h-P2Y2, h-P2Y4, and r-P2Y6) were cultured in T-75 flask. When cells reached the confluency of 80%–90%, they were washed with PBS and then Trypsin was added. After trypsinization for 3 min, 20,000 cells/well were allowed to seed in a black wall and 96 well clear bottom plate which was coated with Poly-D-Lysine and allowed to incubate for 24 h in 37°C, 5% CO2 incubator. After incubation, 200 μL culture media was changed with 100 μL HBSS containing Fura-2 AM which is calcium chelating dye and allowed the plate to incubate for 45 min in dark at temp of 37°C in incubator which is maintained with carbon dioxide (5% CO2). After incubation for 45 min, synthesized molecules were added to HBSS washed cells in each well of 96 well plate and re-incubated for 30 min at 37°C. In next step, injection of the endogenous ligand such as ADP through the injector was followed by excitation and emission measurements of Fura-2 AM at 380/520 nm and 340/520. Final volume of the assay per well 200 μL. IC50 values were computed for the compounds displaying more than 50% of activity using Prism 5.0 software (Graph Pad., Inc., San Diego. California, United States) by using analysis i.e., nonlinear regression ([Kassack et al., 2002]; [Ullmann et al., 2005]).
# HEK-293 Cell Line = assay: MTT assay, HEK-293; type: cell-based; conditions: at 50 µM; triplicate
# t-P2Y1 = biological target: T2, t-P2Y1 (Meleagris gallopavo, UniProt P49652); assay: Calcium mobilization assay, t-P2Y1 transfected 1321N1 astrocytoma cells; type: cell-based; conditions: 100 μM ADP
# T2 construct: host or cells: human 1321N1 astrocytoma cells, stably transfected
# Experimental: as §1, §2
# h-P2Y2 = biological target: T3, h-P2Y2 (Homo sapiens, UniProt P41231); assay: Calcium mobilization assay, h-P2Y2 transfected 1321N1 astrocytoma cells; type: cell-based; conditions: 500 μM ATP
# T3 construct: host or cells: human 1321N1 astrocytoma cells, stably transfected
# Experimental: as §1, §2
# H-1321N1 Cell Line = assay: MTT assay, non-transfected 1321N1 astrocytoma cells; type: cell-based, human; conditions: at 50 µM; non-transfected astrocytoma 1321N1 cells; triplicate
# Experimental: (§3) A 96-well plate was used to plate 20,000 human 1321N1 astrocytoma cells and allowed for incubation for 24 h at temp of 37°C in CO2 (5%) incubator. Next to this, the prepared culture media was changed to media which was free from FBS, the test compounds were added and the incubation process was repeated. After incubation of 24 h, the serum free media from the wells was discarded, and 100 μL of the reagent i.e., MTT reagent was pipetted. Plate was then additionally incubated at 37°C for 4 h. Utilizing a microplate reader, absorbance was determined at 570 nm and 630 nm for calculation of cell viability (FLUOstarOmega Microplate Reader-BMG LABTECH GmbH, Ortenberg, Germany) ([Sauer et al., 2009]).
# HeLa Cell Line = assay: MTT assay, HeLa; type: cell-based; conditions: at 50 µM; triplicate
# r-P2Y6 = biological target: T4, r-P2Y6 (Rattus norvegicus, UniProt Q63371); assay: Calcium mobilization assay, r-P2Y6 transfected 1321N1 astrocytoma cells; type: cell-based
# T4 construct: host or cells: human 1321N1 astrocytoma cells, stably transfected
# Experimental: as §1, §2
# P2Y1 = conditions: Figure 1, reported antagonist; cited from earlier work
# MTT assay, HEK-293 = type: cell-based; conditions: human, HEK-293 cells; at 50 µM; triplicate; read-out: HEK-293 Cell Line (%cytotoxicity ±SEM)
# [1] = MTT assay, non-transfected 1321N1 astrocytoma cells; type: cell-based, human; conditions: human, non-transfected 1321N1 astrocytoma cells; at 50 µM; non-transfected astrocytoma 1321N1 cells; triplicate; read-out: H-1321N1 Cell Line (%cytotoxicity ±SEM)
# Experimental: as §3
# hP2Y2 = test system: hP2Y2; design: method as in Bano et al., 2021; conditions: Figure 1, reported antagonist; ref Bano et al., 2021; cited from earlier work
# MTT assay, HeLa = type: cell-based; conditions: human, HeLa cells; at 50 µM; triplicate; read-out: HeLa Cell Line (%cytotoxicity ±SEM)
# T4 sequence (Q63371 whole entry): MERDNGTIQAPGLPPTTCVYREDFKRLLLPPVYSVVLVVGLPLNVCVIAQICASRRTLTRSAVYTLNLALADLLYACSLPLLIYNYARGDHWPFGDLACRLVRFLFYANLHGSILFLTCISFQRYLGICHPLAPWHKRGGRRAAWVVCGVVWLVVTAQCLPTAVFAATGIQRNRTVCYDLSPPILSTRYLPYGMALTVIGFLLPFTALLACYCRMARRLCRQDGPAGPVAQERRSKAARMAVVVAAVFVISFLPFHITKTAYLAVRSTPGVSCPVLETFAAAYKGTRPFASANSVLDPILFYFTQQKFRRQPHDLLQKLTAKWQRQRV
# T2 sequence (P49652 whole entry): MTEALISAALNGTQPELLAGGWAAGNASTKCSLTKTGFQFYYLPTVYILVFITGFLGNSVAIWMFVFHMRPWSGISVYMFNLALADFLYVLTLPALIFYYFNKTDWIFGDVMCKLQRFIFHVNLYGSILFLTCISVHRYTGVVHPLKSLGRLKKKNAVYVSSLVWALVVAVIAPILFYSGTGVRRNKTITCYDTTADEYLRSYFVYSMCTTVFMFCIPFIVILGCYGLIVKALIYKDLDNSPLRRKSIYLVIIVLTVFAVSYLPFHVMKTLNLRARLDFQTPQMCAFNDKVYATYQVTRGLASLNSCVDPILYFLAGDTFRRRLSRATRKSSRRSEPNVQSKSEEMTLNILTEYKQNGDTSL
# T3 sequence (P41231 whole entry): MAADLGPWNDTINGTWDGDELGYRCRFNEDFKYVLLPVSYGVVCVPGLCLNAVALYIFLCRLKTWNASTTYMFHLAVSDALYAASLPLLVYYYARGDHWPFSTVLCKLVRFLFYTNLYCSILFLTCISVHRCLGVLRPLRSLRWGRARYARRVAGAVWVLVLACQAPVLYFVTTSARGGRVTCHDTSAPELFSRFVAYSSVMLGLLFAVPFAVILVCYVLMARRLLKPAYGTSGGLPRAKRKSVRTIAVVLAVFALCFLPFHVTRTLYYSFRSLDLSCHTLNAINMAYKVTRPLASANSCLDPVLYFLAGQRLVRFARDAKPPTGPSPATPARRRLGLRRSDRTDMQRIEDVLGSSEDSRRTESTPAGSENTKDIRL
# T1 sequence (P51582 whole entry): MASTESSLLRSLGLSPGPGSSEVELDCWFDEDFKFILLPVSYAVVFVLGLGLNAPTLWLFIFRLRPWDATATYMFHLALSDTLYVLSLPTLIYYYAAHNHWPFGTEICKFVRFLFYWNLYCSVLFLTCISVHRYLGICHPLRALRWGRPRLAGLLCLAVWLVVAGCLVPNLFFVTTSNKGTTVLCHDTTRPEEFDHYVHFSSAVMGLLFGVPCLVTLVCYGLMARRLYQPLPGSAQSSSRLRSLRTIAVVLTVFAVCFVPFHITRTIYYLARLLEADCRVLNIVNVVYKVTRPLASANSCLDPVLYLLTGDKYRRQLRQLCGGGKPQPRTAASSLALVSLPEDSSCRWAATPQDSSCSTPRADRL
compound,measurement,setting,value
2-Amino-5-nitro-N-((4-nitrophenyl)sulfonyl)-1H-benzo [d]imidazole-1-carbox amide [1d],% Inhibition h-P2Y4,h-P2Y4,48%
same,HEK-293 Cell Line (%cytotoxicity ±SEM),HEK-293 Cell Line,20.3 ± 0.6%
same,% Inhibition t-P2Y1,t-P2Y1; final conc of 100 μM,43%
same,% Inhibition h-P2Y2,h-P2Y2; final conc of 100 μM,41%
same,H-1321N1 Cell Line (%cytotoxicity ±SEM),H-1321N1 Cell Line,15.9 ± 0.3%
same,HeLa Cell Line (%cytotoxicity ±SEM),HeLa Cell Line,28.3 ± 0.4%
same,r-P2Y6 % Inhibition,r-P2Y6; Supplementary Table 2,39%
same,% Inhibition r-P2Y6,"r-P2Y6; final conc of 100 μM, 100 μM of UDP",39%
CNc1nc(I)nc2c1ncn2C1CC(OP(=O)(O)O)C2(COP(=O)(O)O)CC12 (stereo not drawn) [MRS2500],Ki,P2Y1,0.78 nM
"Cc1ccc(C(=O)Nc2ccc(S(=O)(=O)O)c3cc(S(=O)(=O)O)cc(S(=O)(=O)O)c23)cc1NC(=O)c1cccc(NC(=O)Nc2cccc(C(=O)Nc3cc(C(=O)Nc4ccc(S(=O)(=O)O)c5cc(S(=O)(=O)O)cc(S(=O)(=O)O)c45)ccc3C)c2)c1 [Suramin, reference compound]","cytotoxicity at 24 h, 50 µM","MTT assay, HEK-293",11.1 ± 0.2%
same,IC50,"t-P2Y1; Ca2+ mobilization inhibition, transfected 1321N1 cells, read-out: IC50 ± SEM t-P2Y1",150 ± 10 nM
same,IC50,"h-P2Y2; Ca2+ mobilization inhibition, transfected 1321N1 cells, read-out: IC50 ± SEM h-P2Y2",3310 ± 80 nM
same,"cytotoxicity at 24 h, 50 µM",[1],12.3 ± 0.2%
same,IC50,hP2Y2,48000 nM
same,"cytotoxicity at 24 h, 50 µM","MTT assay, HeLa",37.5 ± 0.2%
